Results on twelve molecules are retold here after patent publication US10836770B2, “Imidazopyridazine compounds useful as modulators of IL-12, IL-23 and/or INF alpha responses” (priority 2016, dated 2020).

Assay [1] deals with T1, recombinantly expressed His-tagged protein corresponding to amino acids 575-869 of human Tyk2 (Homo sapiens, UniProt P29597).
T1 construct: made in house
Briefly: Probe displacement assay (scintillation proximity, radiolabeled probe). In kind it is binding. The protocol: The probe displacement assay is conducted as follows: In a […], test compounds along with recombinantly expressed His-tagged protein corresponding to amino acids 575-869 of human Tyk2 (sequence shown below) at 2.5 nM, 40 nM ((R)—N-(1-(3-(8-methyl-5-(methylamino)-8H-imidazo[4,5-d]thiazolo[5,4-b]pyridin-2-yl)phenyl)ethyl)-2-([^3H]methylsulfonyl)benzamide) (preparation described below) and 80 μg/mL Copper His-Tag scintillation proximity assay beads (Perkin Elmer, Catalog #RPNQ0095) in 50 mM HEPES, pH 7.5, containing 100 μg/mL bovine serum albumin and 5% DMSO were incubated for 30 minutes at room temperature. […] The IC50 value is defined as the concentration of test compound required to inhibit radiolabeled probe binding by 50%.
Protein Sequence of recombinant Hig-tagged Tyk2 (575-869):
The preparation of radiolabeled probe, (R)—N-(1-(3-(8-methyl-5-(methylamino)-8H-imidazo[4,5-d]thiazolo[5,4-b]pyridin-2-yl)phenyl)ethyl)-2-([^3H]methylsulfonyl)benzamide, was performed as described below: […]
(SPA uses beads or plates that emit light when radiolabelled molecules are held near them.)

For assay [2], the system named is IL-23-stimulated Kit225 T cells with STAT-dependent luciferase reporter. Briefly: Kit225 T cell assay, IL-23 stimulated STAT-dependent luciferase reporter. The class given is cell-based, human. As to conditions: Homo sapiens, KIT225, read-out: IL-23 Kit225 Reporter, LE (IC50, uM). The protocol:
(§1) Kit225 T cells with a stably-integrated STAT-dependent luciferase reporter were plated in RPMI (GIBCO) containing 10% heat-inactivated FBS (GIBCO) and 100 U/mL PenStrep (GIBCO). The cells were then stimulated with either 20 ng/mL human recombinant IL-23 or 200 U/mL human recombinant IFNα (PBL InterferonSource) for 5-6 hours. Luciferase expression was measured using the STEADY-GLO® Luciferase Assay System (PROMEGA®) according to the manufacturer's instructions.
In general terms: In a reporter assay the amount or activity of a reporter protein is the signal.

In assay [3] the test system is IFNα-stimulated Kit225 T cells with STAT-dependent luciferase reporter. Briefly: Kit225 T cell assay, IFNα stimulated STAT-dependent luciferase reporter. In kind it is cell-based, human. As to conditions: Homo sapiens, KIT225, read-out: IFNa Kit225 Reporter, LE (IC50, uM). How it is done: as §1

Molecules are shown by their SMILES.

T1 sequence (P29597 with tags, fused parts or gaps): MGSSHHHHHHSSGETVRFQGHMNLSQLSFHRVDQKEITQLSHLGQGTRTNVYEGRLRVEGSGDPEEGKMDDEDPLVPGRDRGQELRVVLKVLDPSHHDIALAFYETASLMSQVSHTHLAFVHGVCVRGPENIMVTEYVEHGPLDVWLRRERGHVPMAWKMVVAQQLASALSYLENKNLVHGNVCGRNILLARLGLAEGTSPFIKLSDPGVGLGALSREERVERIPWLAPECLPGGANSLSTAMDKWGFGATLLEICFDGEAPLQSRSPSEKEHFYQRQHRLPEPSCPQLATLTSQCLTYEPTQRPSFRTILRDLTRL

Broadly, the EC50 is the concentration that produces a half-maximal response. In general, IC50 refers to the midpoint of a concentration-inhibition curve. Take `CNC(=O)c1sccc1Nc1cc(NC)c2ncc(C(=O)NC3CC3)n2n1` [Example 43, N-cyclopropyl-8-(methylamino)-6-((2-(methylcarbamoyl)thiophen-3-yl)amino)imidazo[1,2-b]pyridazine-3-carboxamide]: the EC50 in assay [1] is 490 nM. For the same molecule, the IC50 in assay [2] is 16.1 µM; in assay [3], 12.5 µM.
Take `CNC(=O)c1nn(C)cc1Nc1cc(NC)c2ncc(C(=O)NC3CC3)n2n1` [Example 1, N-cyclopropyl-6-((1-methyl-3-(methylcarbamoyl)-1H-pyrazol-4-yl)amino)-8-(methylamino)imidazo[1,2-b]pyridazine-3-carboxamide]: the 50% effective concentration (EC50) in assay [1] came out at 20 nM. Further, the values for the concentration for half-maximal inhibition (IC50) in assay [2] and in assay [3] were 1.32 µM and 0.37 µM, respectively.
On the same counts, the results for `CNc1cc(Nc2csnc2C(=O)Nc2ccccc2)nn2c(C(=O)NC3CC3)cnc12` [Example 60] are 2.69 nM, 0.211 µM and 0.0662 µM.
For `CNC(=O)c1nn(C)cc1Nc1cc(NC)c2ncc(C(=O)N[C@@H]3C[C@@H]3F)n2n1` [Example 14], in that order: 10 nM, 0.28 µM and 0.25 µM.
On the same counts, the results for `CCNC(=O)c1nscc1Nc1cc(NC)c2ncc(C(=O)NC(CO)CO)n2n1` [Example 74] are 7.25 nM, 0.07 µM and 0.02 µM.
On to `[2H]C([2H])([2H])NC(=O)c1occc1Nc1cc(NC)c2ncc(C(=O)NC3CC3)n2n1` [Example 53], for which the EC50 in assay [1] worked out at 2.82 nM. Also, the half-inhibitory concentration (IC50) was determined as 0.06 µM in assay [2] and 0.07 µM in assay [3].
For `CCNC(=O)c1occc1Nc1cc(NC)c2ncc(C(=O)NC3CC3)n2n1` [Example 52], the EC50 in assay [1] came to 6.73 nM. Besides, the IC50 in assay [2] was 0.1 µM; in assay [3], 0.06 µM.
In the case of `CCNC(=O)c1nn(C)cc1Nc1cc(NC)c2ncc(C(=O)NC3CC3)n2n1` [Example 20], the concentration giving a half-maximal response (EC50) in assay [1] amounted to 30 nM. Further, the IC50 worked out at 1.12 µM in assay [2] and 0.81 µM in assay [3].
For `CNc1cc(Nc2ccoc2C(=O)Nc2ccc(F)cc2)nn2c(C(=O)NC3CC3)cnc12` [Example 56], in that order: 2.08 nM, 0.03 µM and 0.02 µM.
Consider `CNc1cc(Nc2cn(C)nc2C(=O)NC2CCC2)nn2c(C(=O)NC3CC3)cnc12` [Example 19], for which the EC50 in assay [1] was found to be 100 nM. Moreover, the IC50 in assay [2] was determined as 0.59 µM; in assay [3], 12.5 µM.
For `[2H]C([2H])([2H])NC(=O)c1nscc1Nc1cc(NC)c2ncc(C(=O)N[C@@H]3C[C@@H]3F)n2n1` [Example 68], in that order: 2.78 nM, 0.14 µM and 0.05 µM.
For `CNc1cc(Nc2cnn(C)c2C(=O)O)nn2c(C(=O)NC3CC3)cnc12` [Example 37, 4-((3-(cyclopropylcarbamoyl)-8-(methylamino)imidazo[1,2-b]pyridazin-6-yl)amino)-1-methyl-1H-pyrazole-5-carboxylic acid], in that order: 50 nM, 2.34 µM and 1.39 µM.
